{
  "source": "patent US8378104B2",
  "about": "(OSI Pharmaceuticals, LLC, priority 2010, dated 2013)",
  "note": "Structures can show the parent of a compound that is named as a salt.",
  "data": [
    {"target": "T1, TAK1-TAB1 fusion protein (Homo sapiens, UniProt O43318)", "T1 construct": "purchased Carna", "T1 sequence (O43318 with tags, fused parts or gaps limits assumed)": "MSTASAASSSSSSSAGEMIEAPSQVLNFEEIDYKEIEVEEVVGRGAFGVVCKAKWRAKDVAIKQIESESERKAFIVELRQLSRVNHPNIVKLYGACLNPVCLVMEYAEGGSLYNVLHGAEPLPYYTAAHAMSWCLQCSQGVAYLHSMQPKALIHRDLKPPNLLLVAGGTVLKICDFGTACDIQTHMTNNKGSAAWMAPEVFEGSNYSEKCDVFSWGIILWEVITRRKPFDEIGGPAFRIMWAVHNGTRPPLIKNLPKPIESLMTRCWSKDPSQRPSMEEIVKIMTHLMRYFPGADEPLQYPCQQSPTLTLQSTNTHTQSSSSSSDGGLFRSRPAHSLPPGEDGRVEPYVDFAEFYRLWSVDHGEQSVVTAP", "test": "TAK1 biochemical assay (AlphaScreen, GST-MAP2K7 substrate)", "details": "TAK1-TAB1 fusion protein, GST-MAP2K7 substrate; read-out: mean TAK1 IC50 (Col. A)", "units": {"IC50": "nM"}, "values": [
      {"smiles": "N#Cc1cc(-c2cc3c(-c4cnn([C@H]5CC[C@H](O)CC5)c4)cnc(N)c3o2)ccc1N", "note": "[Example 407, 2-amino-5-{7-amino-4-[1-(trans-4-hydroxycyclohexyl)-1H-pyrazol-4-yl]furo[2,3-c]pyridin-2-yl}benzonitrile]", "IC50": "100 to 1000"},
      {"smiles": "Cc1nn(C[C@H](O)CO)cc1-c1cnc(N)c2oc(-c3csc4cnccc34)cc12", "note": "[Example 318, (S)-3-[4-(7-amino-2-thieno[2,3-d]pyridin-3-yl-furo[2,3-d]pyridin-4-yl)-3-methyl-pyrazol-1-yl]-propane-1,2-diol]", "IC50": "1000 to 10000"},
      {"smiles": "CC(=O)N1CCC(n2cc(-c3cnc(N)c4oc(-c5ccc(Oc6ccccc6)cc5)cc34)cn2)CC1", "note": "[Example 159, 1-(4-{4-[7-amino-2-(4-phenoxyphenyl)furo[2,3-c]pyridin-4-yl]-1H-pyrazol-1-yl}piperidin-1-yl)ethanone]", "IC50": "> 10000"},
      {"smiles": "CC(=O)N1CCC(n2cc(-c3cnc(N)c4oc(-c5cccc(OCC(C)C)c5)cc34)cn2)CC1", "note": "[Example 204, 1-[4-(4-{7-amino-2-[3-(2-methylpropoxy)phenyl]furo[2,3-c]pyridin-4-yl}-1H-pyrazol-1-yl)piperidin-1-yl]ethanone]", "IC50": "> 10000"},
      {"smiles": "Nc1ncc(-c2cnn(C3CCNCC3)c2)c2cc(-c3ccoc3)oc12", "note": "[Example 21, 2-(furan-3-yl)-4-[1-(piperidin-4-yl)-1H-pyrazol-4-yl]furo[2,3-c]pyridine-7-amine]", "IC50": "1000 to 10000"},
      {"smiles": "CC(=O)N1CCC(n2cc(-c3cnc(N)c4oc(-c5cccc(OCc6ccccc6)c5)cc34)cn2)CC1", "note": "[Example 164, 1-[4-(4-{7-amino-2-[3-(benzyloxy)phenyl]furo[2,3-c]pyridin-4-yl}-1H-pyrazol-1-yl)piperidin-1-yl]ethanone]", "IC50": "> 10000"},
      {"smiles": "Nc1ncc(-c2cnn([C@H]3CC[C@H](O)CC3)c2)c2cc(-c3cc(C(F)(F)F)cc(C(F)(F)F)c3)oc12", "note": "[Example 401, trans-4-(4-{7-amino-2-[3,5-bis(trifluoromethyl)phenyl]furo[2,3-d]pyridin-4-yl}-1H-pyrazol-1-yl)cyclohexanol]", "IC50": "> 10000"},
      {"smiles": "Nc1ncc(-c2cnn(C3CCNCC3)c2)c2c(Cl)c(-c3cccc4ccsc34)oc12", "note": "[Example 13, 2-(1-benzothiophen-7-yl)-3-chloro-4-[1-(piperidin-4-yl)-1H-pyrazol-4-yl]furo[2,3-c]pyridin-7-amine hydrochloride]", "IC50": "< 100"},
      {"smiles": "CC(=O)N1CCC(n2cc(-c3cnc(N)c4oc(-c5ccc(CC#N)cc5)cc34)cn2)CC1", "note": "[Example 179, (4-{4-[1-(1-acetylpiperidin-4-yl)-1H-pyrazol-4-yl]-7-aminofuro[2,3-c]pyridin-2-yl}phenyl)acetonitrile]", "IC50": "1000 to 10000"},
      {"smiles": "Nc1ncc(-c2ccc(C(=O)O)s2)c2cc(-c3csc4cnccc34)oc12", "note": "[Example 381, 5-(7-amino-2-thieno[2,3-c]pyridin-3-yl-furo[2,3-c]pyridin-4-yl)-thiophene-2-carboxylic acid]", "IC50": "1000 to 10000"},
      {"smiles": "Nc1ncc(-c2cnn(C3CCNCC3)c2)c2c(Cl)c(-c3ccccc3)oc12", "note": "[Example 12, 3-chloro-2-phenyl-4-[1-(piperidin-4-yl)-1H-pyrazol-4-yl]furo[2,3-c]pyridin-7-amine hydrochloride]", "IC50": "100 to 1000"},
      {"smiles": "Nc1ncc(-c2cnn(C3CCNCC3)c2)c2cc(-c3cccc4cccnc34)oc12", "note": "[Example 32, 4-[1-(piperidin-4-yl)-1H-pyrazol-4-yl]-2-(quinolin-8-yl)furo[2,3-c]pyridine-7-amine]", "IC50": "1000 to 10000"},
      {"smiles": "Cc1n[nH]c(C)c1-c1cnc(N)c2oc(-c3csc4cnccc34)cc12", "note": "[Example 295, 4-(3,5-dimethyl-1H-pyrazol-4-yl)-2-thieno[2,3-c]pyridin-3-yl-furo[2,3-c]pyridin-7-ylamine]", "IC50": "1000 to 10000"},
      {"smiles": "CCOc1cccc(-c2cc3c(-c4cnn(C5CCN(C(C)=O)CC5)c4)cnc(N)c3o2)c1", "note": "[Example 162, 1-(4-{4-[7-amino-2-(3-ethoxyphenyl)furo[2,3-c]pyridin-4-yl]-1H-pyrazol-1-yl}piperidin-1-yl)ethanone]", "IC50": "1000 to 10000"}
    ]}
  ]
}
